Test results published in patent US7429618B2, “Potassium channel modulators” (Neurosearch A/S, priority 2002, dated 2008).

Row | SMILES | melting point
1 | COP(=O)(OC)C(c1ccc(F)cc1)(c1ccc(F)cc1)c1ccc(F)cc1 | 131.6 °C
2 | COP(=O)(OC)C(c1ccc(F)cc1)(c1ccccc1F)c1ccccc1Cl (centres unmarked) | 131.5 to 132.5 °C
3 | COP(=O)(OC)C(c1ccc(F)cc1)(c1ccc(F)cc1)c1ccc(Cl)cc1 | 136 to 137 °C
4 | COP(=O)(OC)C(c1ccc(F)cc1)(c1ccc(F)cc1)c1ccccc1F | 136.6 °C
5 | Fc1ccc(C(OP2OCCO2)(c2ccc(F)cc2)c2ccccc2F)cc1 | 163 to 164 °C
6 | Fc1ccc(C(OP2OCCO2)(c2ccc(F)cc2)c2ccc(F)cc2)cc1 | 195 to 196 °C
7 | O=[N+]([O-])c1ccc(OC(c2ccc(F)cc2)(c2ccc(F)cc2)c2nccs2)cc1C(F)(F)F [Compound 1, 2-[Bis-(4-fluoro-phenyl)-(4-nitro-3-trifluoromethyl-phenoxy)-methyl]-thiazole] | 88.6 to 89.5 °C
8 | C=CCC(C#N)(c1ccc(F)cc1)c1ccccc1F (centres unmarked) [Compound 4, 2-(2-Fluoro-phenyl)-2-(4-fluoro-phenyl)-pent-4-enenitrile] | 215 to 219 °C
9 | Cn1ccnc1SC(c1ccc(F)cc1)(c1ccc(F)cc1)c1ccc(F)cc1 [Compound 5-11, 1-Methyl-2-[tris-(4-fluorophenyl)-methylsulfanyl]-1H-imidazole] | 135.5 to 140.5 °C
10 | [O-][n+]1ccccc1SC(c1ccc(F)cc1)(c1ccc(F)cc1)c1ccc(F)cc1 [Compound 5-13, 2-[Tris-(4-fluorophenyl)-methylsulfanyl]-pyridine-N-oxide] | 147.7 to 151.8 °C
11 | CCN(CC)C(=O)CSC(c1ccc(F)cc1)(c1ccc(F)cc1)c1ccccc1F [Compound 5-14, 2-[Bis-(4-fluoro-phenyl)-(2-fluoro-phenyl)-methylsulfanyl]-N,N-diethyl-acetamide] | 122 to 123 °C
12 | CN(C(=O)CSC(c1ccc(F)cc1)(c1ccc(F)cc1)c1ccccc1F)c1ccccc1 [Compound 5-15, 2-[Bis-(4-fluoro-phenyl)-(2-fluoro-phenyl)-methylsulfanyl]-N-methyl-N-phenyl-acetamide] | 120 to 121 °C
13 | O=C(CSC(c1ccc(F)cc1)(c1ccc(F)cc1)c1ccccc1F)N1CCCCC1 [Compound 5-16, 2-[Bis-(4-fluoro-phenyl)-(2-fluoro-phenyl)-methylsulfanyl]-1-piperidin-1-yl-ethanone] | 128 to 129 °C
14 | NC(=O)CSC(c1ccc(F)cc1)(c1ccc(F)cc1)c1ccccc1F [Compound 5-17, 2-[Bis-(4-fluoro-phenyl)-(2-fluoro-phenyl)-methylsulfanyl]-acetamide] | 119 to 120 °C
15 | CC(SC(c1ccc(F)cc1)(c1ccc(F)cc1)c1ccccc1F)C(N)=O (centres unmarked) [Compound 5-18, 2-[Bis-(4-fluoro-phenyl)-(2-fluoro-phenyl)-methylsulfanyl]-propionamide] | 133 to 134 °C
16 | N#CCSC(c1ccc(F)cc1)(c1ccc(F)cc1)c1ccccc1F [Compound 5-19, [Bis-(4-fluoro-phenyl)-(2-fluoro-phenyl)-methylsulfanyl]-acetonitrile] | 111 to 112 °C
17 | O=C(O)CSC(c1ccc(F)cc1)(c1ccc(F)cc1)c1ccccc1F [Compound 5-20, [(2-Fluoro-phenyl)-bis-(4-fluoro-phenyl)-methylsulfanyl]-acetic acid] | 112 to 113 °C
18 | CC(C)C(C#N)(c1ccc(F)cc1)c1ccc(F)cc1 [Compound 6, 2,2-Bis-(4-fluoro-phenyl)-3-methyl-butyronitrile] | 142.3 to 147 °C
19 | CS(=O)(=O)C(c1ccc(F)cc1)(c1ccc(F)cc1)c1ccc(F)cc1 [Compound 7-1, Methyl tris(4-fluorophenyl)methyl sulfone] | 140.6 to 145.3 °C
20 | O=S(=O)(c1ccccc1)C(c1ccc(F)cc1)(c1ccc(F)cc1)c1ccc(F)cc1 [Compound 7-7, Phenyl tris(4-fluorophenyl)methyl sulfone] | 157.4 to 160.6 °C
21 | CS(=O)(=O)C(c1ccc(F)cc1)(c1ccc(F)cc1)c1ccccc1F [Compound 7-14, Methanesulphonyl-2-fluorophenyl-bis-(4-fluoro-phenyl) methane] | 147 to 149 °C
22 | O=P(O)(O)C(c1ccc(F)cc1)(c1ccc(F)cc1)c1ccccc1F [Compound 10-14, [Bis-(4-fluoro-phenyl)-(2-fluoro-phenyl)-methyl]-phosphonic acid] | 228 to 230 °C
23 | Cc1ccc(C(c2ccc(F)cc2)(c2ccc(F)cc2)P(=O)(O)O)cc1 [Compound 10-15, [Bis-(4-fluoro-phenyl)-p-tolyl-methyl]-phosphonic acid] | 240 °C (dec.)
24 | N#CC(c1ccc(F)cc1)(c1ccc(F)cc1)C(c1ccccc1)c1ccccc1 [Compound 12, 2,2-Bis-(4-fluoro-phenyl)-3,3-diphenyl-propionitrile] | 208 to 212.5 °C
25 | N#CC(c1ccc(F)cc1)(c1ccccc1F)C(c1ccccc1)c1ccccc1 (centres unmarked) [Compound 13, 2-(2-Fluoro-phenyl)-2-(4-fluoro-phenyl)-3,3-diphenyl-propionitrile] | 210 to 215.3 °C
26 | CC(=O)C(C#N)(c1ccc(F)cc1)c1ccc(F)cc1 [Compound 18, 2,2-Bis-(4-fluoro-phenyl)-3-oxo-butyronitrile] | < 50 °C
27 | COC(=O)C(C#N)(c1ccc(F)cc1)c1ccccc1F (centres unmarked) [Compound 22, Cyano-(4-fluoro-phenyl)-(2-fluoro-phenyl)-acetic acid methyl ester] | 104 to 105 °C
28 | N#CCC(C#N)(c1ccc(F)cc1)c1ccc(F)cc1 [Compound 24, 2,2-Bis-(4-fluoro-phenyl)-succinonitrile] | 93 to 94 °C
29 | CCOC(=O)C(C(=O)OCC)C(C#N)(c1ccc(F)cc1)c1ccc(F)cc1 [Compound 27, 2-[Cyano-bis-(4-fluoro-phenyl)-methyl]-malonic acid diethyl ester] | 117 to 119 °C
